Data from ChEMBL document CHEMBL3885861, “Open TG-GATES”.

Species: Rattus norvegicus
Test: Open TG-GATES - Regimen: Single
Format: toxicity, organism-based, Sprague-Dawley
Design: regimen Single, gender Male, age 6 weeks
Conditions: in vivo, po, 0 mg/kg, route gavage, dose level Control; for APTT / Bas / Eos / Fbg / Hb / Ht / Lym / MCH / MCHC / MCV / Mono / Neu / PT / Plat / RBC / Ret / WBC: tissue Blood; for KIDNEY_L / KIDNEY_R / KIDNEY_TOTAL: tissue Kidney; for LIVER: tissue Liver; for A/G / ALP / ALT / AST / BUN / CRE / Ca / Cl / DBIL / GLC / IP / K / LDH / Na / PL / RALB / TBIL / TC / TG / TP / gamma-GTP: tissue Plasma

Compound: O=c1ccc2ccccc2o1 [COUMARIN]
- TERMINAL_BW (3 h): 182.8 g
- APTT (3 h): 16.6 s
- Bas (3 h): 0%
- Eos (3 h): 0.6%
- Fbg (3 h): 205.4 mg/dL
- Hb (3 h): 13.5 g/dL
- Ht (3 h): 40%
- Lym (3 h): 83.8%
- MCH (3 h): 22.1 pg
- MCHC (3 h): 33.6%
- MCV (3 h): 65.8 fL
- Mono (3 h): 4.8%
- Neu (3 h): 11%
- PT (3 h): 12.3 s
- Plat (3 h): 106.1 x10_4/uL
- RBC (3 h): 608.6 x10_4/ul
- Ret (3 h): 8.9%
- WBC (3 h): 102.6 x10_2/uL
- KIDNEY_L (3 h): 0.8 g
- KIDNEY_R (3 h): 0.8 g
- KIDNEY_TOTAL (3 h): 1.7 g
- LIVER (3 h): 8.4 g
- A/G (3 h): 2.1
- ALP (3 h): 1014.2 IU/L
- ALT (3 h): 43 IU/L
- AST (3 h): 69.4 IU/L
- BUN (3 h): 11.2 mg/dL
- CRE (3 h): 0.5 mg/dL
- Ca (3 h): 10.9 mg/dL
- Cl (3 h): 104.8 meq/L
- DBIL (3 h): 0.026 mg/dL
- GLC (3 h): 189.4 mg/dL
- IP (3 h): 10.7 mg/dL
- K (3 h): 4.7 meq/L
- LDH (3 h): 76.6 IU/L
- Na (3 h): 138.6 meq/L
- PL (3 h): 158.2 mg/dL
- RALB (3 h): 4 g/dL
- TBIL (3 h): 0.3 mg/dL
- TC (3 h): 81.4 mg/dL
- TG (3 h): 99.4 mg/dL
- TP (3 h): 5.8 g/dL
- gamma-GTP (3 h): 1.6 IU/L
- TERMINAL_BW (6 h): 179.5 g
- APTT (6 h): 16.3 s
- Bas (6 h): 0%
- Eos (6 h): 0.8%
- Fbg (6 h): 205.8 mg/dL
- Hb (6 h): 13.5 g/dL
- Ht (6 h): 40.4%
- Lym (6 h): 75.4%
- MCH (6 h): 21.8 pg
- MCHC (6 h): 33.4%
- MCV (6 h): 65.4 fL
- Mono (6 h): 7.8%
- Neu (6 h): 16.6%
- PT (6 h): 12.4 s
- Plat (6 h): 108.2 x10_4/uL
- RBC (6 h): 617.2 x10_4/ul
- Ret (6 h): 9.3%
- WBC (6 h): 115.3 x10_2/uL
- KIDNEY_L (6 h): 0.8 g
- KIDNEY_R (6 h): 0.9 g
- KIDNEY_TOTAL (6 h): 1.7 g
- LIVER (6 h): 7.7 g
- A/G (6 h): 2.1
- ALP (6 h): 982 IU/L
- ALT (6 h): 36.4 IU/L
- AST (6 h): 66.6 IU/L
- BUN (6 h): 11.4 mg/dL
- CRE (6 h): 0.5 mg/dL
- Ca (6 h): 10.4 mg/dL
- Cl (6 h): 107.8 meq/L
- DBIL (6 h): 0.002 mg/dL
- GLC (6 h): 184.6 mg/dL
- IP (6 h): 11.3 mg/dL
- K (6 h): 5.4 meq/L
- LDH (6 h): 96.8 IU/L
- Na (6 h): 139.4 meq/L
- PL (6 h): 144.4 mg/dL
- RALB (6 h): 3.8 g/dL
- TBIL (6 h): 0.3 mg/dL
- TC (6 h): 82 mg/dL
- TG (6 h): 52.2 mg/dL
- TP (6 h): 5.6 g/dL
- gamma-GTP (6 h): 1.4 IU/L
- TERMINAL_BW (9 h): 180 g
- APTT (9 h): 16 s
- Bas (9 h): 0%
- Eos (9 h): 0.8%
- Fbg (9 h): 206.8 mg/dL
- Hb (9 h): 13.1 g/dL
- Ht (9 h): 39.4%
- Lym (9 h): 79.2%
- MCH (9 h): 21.9 pg
- MCHC (9 h): 33.3%
- MCV (9 h): 65.9 fL
- Mono (9 h): 6.4%
- Neu (9 h): 14%
- PT (9 h): 12.4 s
- Plat (9 h): 117.4 x10_4/uL
- RBC (9 h): 598.6 x10_4/ul
- Ret (9 h): 9.2%
- WBC (9 h): 106.8 x10_2/uL
- KIDNEY_L (9 h): 0.9 g
- KIDNEY_R (9 h): 0.9 g
- KIDNEY_TOTAL (9 h): 1.7 g
- LIVER (9 h): 7.4 g
- A/G (9 h): 2.1
- ALP (9 h): 975.8 IU/L
- ALT (9 h): 31.2 IU/L
- AST (9 h): 59.4 IU/L
- BUN (9 h): 12.4 mg/dL
- CRE (9 h): 0.5 mg/dL
- Ca (9 h): 10.7 mg/dL
- Cl (9 h): 106 meq/L
- DBIL (9 h): 0.022 mg/dL
- GLC (9 h): 190.8 mg/dL
- IP (9 h): 11 mg/dL
- K (9 h): 5.1 meq/L
- LDH (9 h): 82.2 IU/L
- Na (9 h): 138.2 meq/L
- PL (9 h): 139 mg/dL
- RALB (9 h): 3.7 g/dL
- TBIL (9 h): 0.3 mg/dL
- TC (9 h): 79.4 mg/dL
- TG (9 h): 36.6 mg/dL
- TP (9 h): 5.5 g/dL
- gamma-GTP (9 h): 1.6 IU/L
- TERMINAL_BW (24 h): 191.8 g
- APTT (24 h): 16.1 s
- Bas (24 h): 0%
- Eos (24 h): 0.8%
- Fbg (24 h): 205.4 mg/dL
- Hb (24 h): 13.2 g/dL
- Ht (24 h): 39.3%
- Lym (24 h): 77.2%
- MCH (24 h): 21.8 pg
- MCHC (24 h): 33.4%
- MCV (24 h): 65.1 fL
- Mono (24 h): 8.8%
- Neu (24 h): 13.6%
- PT (24 h): 12.5 s
- Plat (24 h): 106.5 x10_4/uL
- RBC (24 h): 604.2 x10_4/ul
- Ret (24 h): 8.3%
- WBC (24 h): 132 x10_2/uL
- KIDNEY_L (24 h): 0.9 g
- KIDNEY_R (24 h): 0.9 g
- KIDNEY_TOTAL (24 h): 1.8 g
- LIVER (24 h): 9 g
- A/G (24 h): 1.9
- ALP (24 h): 985.2 IU/L
- ALT (24 h): 37 IU/L
- AST (24 h): 64.4 IU/L
- BUN (24 h): 16.2 mg/dL
- CRE (24 h): 0.5 mg/dL
- Ca (24 h): 10.8 mg/dL
- Cl (24 h): 105.4 meq/L
- DBIL (24 h): 0 mg/dL
- GLC (24 h): 184.4 mg/dL
- IP (24 h): 7.9 mg/dL
- K (24 h): 5.5 meq/L
- LDH (24 h): 92.6 IU/L
- Na (24 h): 137.8 meq/L
- PL (24 h): 138 mg/dL
- RALB (24 h): 3.7 g/dL
- TBIL (24 h): 0.3 mg/dL
- TC (24 h): 76 mg/dL
- TG (24 h): 82.8 mg/dL
- TP (24 h): 5.6 g/dL
- gamma-GTP (24 h): 1.2 IU/L
